The source of these data is PMC9856044 (Biomolecules, 2023).

The structures appear in SMILES notation.

One series concerns ds-DNA and ds-RNA. Nature of the series: Thermal melting of ds-DNA and ds-RNA. It is filed as binding. The following applies: r [compound]/[nucleotide phosphate] = 0.1. On the procedure:
(§1) Thermal melting curves for DNA, RNA and their complexes with studied compounds were determined as previously described by following the absorption change at 260 nm as a function of temperature. The absorbance of the ligands was subtracted from every curve and the absorbance scale was normalized. Tm values are the midpoints of the transition curves determined from the maximum of the first derivative and checked graphically by the tangent method. The ∆Tm values were calculated by subtracting Tm of the free nucleic acid from Tm of the complex. Every ∆Tm value here reported was the average of two measurements. The error in ∆Tm is ±0.5 °C. 5′-AGGG(TTAGGG)3–3′(Tel22) was obtained from IDT (Integrated DNA Technologies, Coralville, IA, USA). Tel22 was dissolved in 0.1 M either in sodium cacodylate or potassium phosphate buffer. The starting Tel22 oligonucleotide solution was first heated up to 95 °C for 10 min, then slowly cooled to 10 °C at the cooling rate of 1 °C/min to allow DNA oligonucleotide to adopt a G-quadruplex structure. The G-quadruplex structure was confirmed by thermal melting and CD spectra. The concentration of G quadruplex was expressed in terms of oligonucleotide structure. In fluorimetric titrations, aliquots of Tel 22 solution were added to the solution of ligands (c ~ 2 × 10^−7 M, in SI).
Binding abilities of 1–6 compounds were further explored by thermal melting experiments. […]

In series [1] the test system is Tel22 G-quadruplex. Nature of the series: Thermal melting of Tel22 in sodium cacodylate buffer. It is filed as binding, human. The following applies: Tel22, r = 1.0, sodium cacodylate buffer, pH = 7.0, I = 0.1 mol dm^−3; error ± 0.5 °C. As to the method: as §1
Series [2] is described as follows: Solubility and aggregation (UV/Vis characterization). It is filed as physicochemical. To be noted: sodium cacodylate buffer, I = 0.05 mol dm^−3, pH = 7.0; UV/Vis. On the procedure: The UV/vis spectra were recorded on a Varian Cary 100 Bio spectrophotometer (Agilent, Santa Clara, CA, USA), CD spectra on JASCO J815 spectrophotometer (ABL&E Handels GmbH, Wien, Austria) and fluorescence spectra on a Varian Cary Eclipse spectrophotometer (Agilent, Santa Clara, CA, USA) at 25 °C using appropriate 1 cm path quartz cuvettes.
Studied compounds, 1–6 were soluble (c = 8 × 10^−4 mol dm^−3) in DMSO. […] Therefore, the stock solution of 2 was prepared fresh before use. The experiments were done in aqueous buffer (sodium cacodylate buffer, I = 0.05 mol dm^−3; pH = 7.0).
However, the shape of UV/Vis spectra of cyanine 2 changed with increasing concentration (calibration experiment in Figure S2 in SI). In addition to the dominant maximum at 432 nm (which most likely corresponds to the monomer form of the dye), the absorption band at 413 nm becomes more intense (Figure S2 in SI). Presumably, it corresponds to the aggregated form (H-aggregate). Based on the existence of an absorption band at 432 nm, only the monomer dye form is visible at high temperature (95 °C) (Figure S8b in SI). However, after cooling the solution to 25 °C, an additional band appears at 413 nm, which corresponds to the aggregated dye form.

The next series has as its system SK-OV-3 cells. Briefly: MTT cytotoxicity assay, SK-OV-3. It is filed as cell-based. To be noted: Homo sapiens, SK-OV-3, 72 h incubation, ± SD. As to the method: (§2) Human cervical carcinoma HeLa (GIBCO BRL, Invitrogen, Waltham, MA, USA), human melanoma MDA-MB-435S and human ovarian adenocarcinoma SK-OV-3 (ATCC-LGC Standards GmbH, Wesel, Germany) cell lines were purchased from indicated cell culture banks. Normal human skin fibroblasts were isolated from the upper arm of a donor at the Neurochemical Laboratory, Department of Chemistry and Biochemistry, School of Medicine, University of Zagreb. HeLa, MDA-MB-435S and fibroblasts were grown in Dulbecco’s Modified Eagle’s Medium (DMEM; Sigma-Aldrich, St. Louis, MI, USA) while the SK-OV-3 cell line was grown in McCoy’s 5A medium (Capricorn Scientific, Ebsdorfergrund, Germany). All media were supplemented with 10% fetal bovine serum (FBS; Sigma-Aldrich) and 50 I.U./mL penicillin and 50 μg/mL streptomycin. Cells were cultured in a humidified atmosphere of 5% CO2 at 37 °C and were sub-cultured every 3–4 days. HeLa, MDA-MB-435S, SK-OV-3 cells and fibroblasts were seeded in 96 well plates. Twenty-four hours later the cells were treated, in quadruplicate, with different concentrations of compounds (dissolved in DMSO, kept at 4 °C and protected from light). Following 72 h of incubation at 37 °C, the medium was aspired and modified 3-(4,5-dimethylthiazol-2-yl)-2,5-diphenyltetrazolium bromide (MTT) assay was used to determine the cytotoxic effect of the tested compounds. Three hours later, formazan crystals were dissolved in DMSO (0.17 mL/well), the plates were mechanically agitated for 20 min and the optical density at 600 nm was determined on a microtiter plate reader (Awareness Technology Inc., Palm City, FL, USA). The experiments were repeated three times.
On the technique in general: Tetrazolium dyes change colour on reduction, which living cells bring about.

Series [3] has as its target Tel22 (5′-AGGG(TTAGGG)3–3′) G-quadruplex. Briefly: Fluorimetric titration with Tel22 in potassium phosphate buffer (K+ solution). To be noted: Tel22, K+ solution; no accurate fit possible. The format is binding, human. On the procedure:
(§3) Materials. Polynucleotides were purchased as noted: poly A–poly U, calf thymus ctDNA, poly(dAdT)2 and poly(dGdC)2 (Sigma-Aldrich, St. Louis, MI, USA). Polynucleotides were dissolved in Na-cacodylate buffer, I = 0.05 mol dm^−3, pH = 7.0. The calf thymus ctDNA was additionally sonicated and filtered through a […]. Polynucleotide concentration was determined spectroscopically as the concentration of phosphates. Spectrophotometric titrations were performed at pH = 7.0 (I = 0.05 mol dm^−3, sodium cacodylate buffer) by adding aliquots of polynucleotide solution into the solution of the studied compound for fluorimetric experiments and CD experiments were done by adding aliquots of the compound stock solution into the solution of a polynucleotide. In fluorimetric experiments, an excitation wavelength of λexc = 425, 431, 423, 427, 406 and 407 nm, respectively, was used to avoid the inner filter effect caused due to increasing absorbance of the polynucleotide. Emission was collected in the range λem = 400–700 nm. Values for Ka obtained by processing titration data using the Scatchard equation [27], all have satisfactory correlation coefficients (≥0.98).
as §1
(§4) Binding constants (log Ka) and stoichiometry of complexes were calculated from the fluorimetric data using non-linear least-square program SPECFIT [46], in the concentration range that corresponded to 20–80% complex formed.

The test system of a further series is HeLa cells. Briefly: MTT cytotoxicity assay, HeLa. It is filed as cell-based. The following applies: Homo sapiens, 72 h incubation, ± SD. As to the method: as §2
For a further series, the system named is Fibroblasts. Briefly: MTT cytotoxicity assay, normal human skin fibroblasts. The format is cell-based. The following applies: Fibroblast, 72 h incubation, ± SD. As to the method: as §2
The next series deals with MDA-MB-435S cells. Briefly: MTT cytotoxicity assay, MDA-MB-435S. It is filed as cell-based. To be noted: Homo sapiens, 72 h incubation, ± SD. On the procedure: as §2
Series [4] relates to Tel22 G-quadruplex. Nature of the series: Thermal melting of Tel22 in potassium phosphate buffer. To be noted: Tel22, r = 1.0, potassium phosphate buffer, pH = 7.0, I = 0.1 mol dm^−3; error ±0.5 °C. It is filed as binding, human. On the procedure: as §1
The test system of series [5] is Tel22 (DNA, G4) AGGGTTAGGGTTAGGGTTAGGG
Briefly: fluorescence titration (SPECFIT). To be noted: Na+ (sodium cacodylate, I = 0.1 M); pH 7.0, 25 °C; site 1 of 2.

Series [6] deals with Tel22 (5′-AGGG(TTAGGG)3–3′) G-quadruplex. Briefly: Fluorimetric titration with Tel22 in sodium cacodylate buffer (Na+ solution). It is filed as binding, human. To be noted: Tel22, sodium cacodylate buffer, pH = 7.0, I = 0.1 mol dm^−3; SPECFIT fit of fluorescence titration. On the procedure: as §3, §1, §4
For series [7], the system named is Tel22 (DNA, G4) AGGGTTAGGGTTAGGGTTAGGG
Nature of the series: UV thermal melting, 260 nm. To be noted: Na+ (sodium cacodylate, I = 0.1 M); pH 7.0; Tel22 2 µM, r = 1.0 (compound 2 µM).

The test system is the same in series [8]. Nature of the series: fluorescence titration. The following applies: K+ (potassium phosphate, I = 0.1 M); pH 7.0, 25 °C; emission increase, no constant fitted.

A word on the IC50: it is the concentration that gives 50% inhibition. Read a low IC50 as greater potency. Turning to `C[n+]1c(/C=C2\Sc3ccccc3N2CCS)[se]c2ccccc21` [Compound 6, 2-((3-(2-mercaptoethyl)benzo[d]thiazol-2(3H)-ylidene)methyl)-3-methylbenzo[d][1,3]selenazol-3-ium methosulphate], in the series with ds-DNA and ds-RNA, the “Effect on DNA/RNA thermal stability” value is given as “did not show any impact”. In addition, the “∆Tm” value stood at 2.0 °C in the series on Tel22 G-quadruplex [1] and 6.9 °C with Tel22 G-quadruplex [4]. For the same compound, the “Aggregation in aqueous buffer” value in series [2] is “significantly aggregate”. In addition, the half-inhibitory concentration (IC50) is more than 40 µM with SK-OV-3 cells, 30.7 ± 4.07 µM in the series on HeLa cells, more than 40 µM in the series with Fibroblasts and 32.8 ± 3.76 µM in the series with MDA-MB-435S cells. In addition, the “log Ka (indicated by steeper slope of titration curves)” value in series [3] is reported as not below 7.
In general, melting point refers to the temperature of the solid-liquid transition. For the compound `C[n+]1c(C=C2Sc3ccccc3N2CCCS(=O)(=O)[O-])[se]c2ccccc21` [Compound 1, 3-(2-((3-methylbenzo[d][1,3]selenazol-3-ium-2-yl)methylene)benzo[d]thiazol-3(2H)-yl)propane-1-sulfonate], the melting point is more than 300 °C. Further, the logKa1 in [5] was 6.93 ± 0.25. For the same compound, the “∆Tm” value in the series with Tel22 G-quadruplex [1] came to 0 °C. Further, the “Aggregation in aqueous buffer” value in series [2] is given as “do not form aggregates”. Moreover, the IC50 in the series on SK-OV-3 cells stood at 32.8 ± 1.09 µM. Moreover, in [6], the “logKa1 (L + G ⇆ LG)” value turned out to be 6.93 ± 0.25 and the “logKa2 (LG + G ⇆ LG2)” value was 5.69 ± 0.23. Further, the IC50 in the series on HeLa cells is 31.9 ± 1.14 µM. This compound yielded an IC50 with Fibroblasts of more than 40 µM. Further, the “∆Tm” value in [7] was 0 °C. In the series on MDA-MB-435S cells, this compound came in with a half-inhibitory concentration (IC50) of 18.5 ± 1.23 µM. Moreover, in [8], the binding entry was “yes”.
